According to ChEMBL document CHEMBL1201862, “PubChem BioAssay data set” (2004):
Calls of active or inactive are those of the source.

How the values were obtained:
[1] = biological target: Nonstructural protein 1 (Influenza A virus, UniProt Q194T2); format: functional, Influenza A virus (A/California/07/2009(H1N1))
[2] = tested on: MDCK; assay: MDCK cell cytotoxicity, dose response, cytotoxicity control (AID 540296); format: functional; settings: Canis lupus familiaris
[3] = tested on: MDCK; assay: antiviral activity against H1N1 influenza, dose response, cell-based, strain KY180 (AID 540254); format: functional; settings: Canis lupus familiaris
[4] = tested on: MDCK; assay: antiviral activity against H1N1 influenza, dose response, cell-based, strain KY136 (AID 540257); format: functional; settings: Canis lupus familiaris
[5] = biological target: T1, High affinity choline transporter 1 (Homo sapiens, UniProt Q9GZV3); assay: CHT inhibitors, dose response, cell-based, 5-point CRC, membrane potential dye (AID 504840); format: functional
T1 sequence (Q9GZV3 whole entry): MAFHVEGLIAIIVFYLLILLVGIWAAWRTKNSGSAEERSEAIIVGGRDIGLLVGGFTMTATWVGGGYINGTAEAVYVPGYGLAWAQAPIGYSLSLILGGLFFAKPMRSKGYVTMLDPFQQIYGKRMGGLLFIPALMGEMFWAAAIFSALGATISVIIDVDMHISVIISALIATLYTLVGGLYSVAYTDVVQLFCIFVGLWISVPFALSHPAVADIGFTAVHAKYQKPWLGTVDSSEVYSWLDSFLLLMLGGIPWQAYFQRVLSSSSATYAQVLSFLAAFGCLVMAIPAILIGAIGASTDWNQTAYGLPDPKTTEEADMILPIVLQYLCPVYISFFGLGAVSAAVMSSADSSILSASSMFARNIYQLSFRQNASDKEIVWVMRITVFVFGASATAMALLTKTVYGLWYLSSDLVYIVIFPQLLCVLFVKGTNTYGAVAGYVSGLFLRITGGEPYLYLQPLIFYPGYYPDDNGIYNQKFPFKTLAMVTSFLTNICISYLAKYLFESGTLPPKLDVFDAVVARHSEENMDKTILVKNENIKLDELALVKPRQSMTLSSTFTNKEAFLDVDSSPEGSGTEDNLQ

[6] = tested on: Vero; assay: Vero E6 cell cytotoxicity, dose response, cytotoxicity control (AID 540298); format: functional; settings: Chlorocebus sabaeus

Nonstructural protein 1, sequence (Q194T2 whole entry): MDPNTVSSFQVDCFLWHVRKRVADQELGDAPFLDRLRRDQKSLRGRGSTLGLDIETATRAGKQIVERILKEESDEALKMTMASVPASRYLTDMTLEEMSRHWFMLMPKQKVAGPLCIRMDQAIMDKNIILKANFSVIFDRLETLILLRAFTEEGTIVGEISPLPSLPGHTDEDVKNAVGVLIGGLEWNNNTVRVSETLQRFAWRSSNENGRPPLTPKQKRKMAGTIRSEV

O=C(Nc1cccc(CNCCc2c[nH]c3ccccc23)c1)c1ccccc1Cl
active: IC50 [1] > 100 µM | CC50 [2] 10.9 µM | IC50 [3] > 100 µM | IC50 [4] 2.93 µM | IC50 [5] 17.4 µM | CC50 [6] 22.4 µM
